We go through one molecule from US8329141B2, “Locoregional internal radionuclide ablation of abnormal tissues” (Board of Regents, The University of Texas System, priority 2004, dated 2012).

In the data set the test system is rat mammary cancer 13762F tumor cells. In words: In vivo tumor growth after intratumoral injection of radiopharmaceuticals (rat mammary cancer model). Also on record: species or system Fischer 344 female rats. The method, then:
The radionuclides YCl3, ^111In—Cl, and ^201Tl—Cl were obtained from a local supplier of radioisotopes, Iso-Tex Diagnostics (Friendswood, Tex.). YCl3 obtained from the supplier was in an acidic preparation with a pH of 2-3, and was subsequently diluted in saline to a final pH of about 4-6 before injection. Initial activities of ^111In—Cl and YCl3 were about 200-500 mCi/ml, and dilution were made with preservative-free saline. YIMA was prepared by co-precipitation, as set forth in U.S. Ser. No. 10/724,027. Briefly, 500 μl of FeCl3 (1 mg Fe/ml) was added to 30 μl of ^90Y chloride (20-40 μCi/30 μl), and either 30 μl of NaOH (1.0 N) or 10 μl of NH4OH (20.0%) was added to the solution to reach a pH of about 7.0 to 9.0. Co-precipitated YIMA radiopharmaceutical macroaggregates were then separated from remaining soluble radionuclides by centrifuging the reactions from 1500 RPM to 3000 RPM×5 minutes, and filtered using a Millipore Nylone (size: 0.45 μm, diameter: 13 mm) to isolate the radiopharmaceutical macroaggregates.
The rat model of in vivo tumor growth was generated as follows. On day zero, 100,000 rat mammary cancer 13762F tumor cells were implanted in a volume of 0.15 ml into the right thigh muscle of Fischer 344 female rats weighing approximately 160 grams. […] YIMA was injected in a volume of 0.2 ml on days 3-7 after tumor implantation. Tumor sizes and body weights of the rats were monitored regularly (5 times a week) for several weeks, or until the tumors grew beyond 2.5 cm, at which time the rats were euthanized.

Setting [1] is: locoregional administration in rats.

As for `[Cl][90Y]([Cl])[Cl]` [YCl3, Yttrium-90 chloride], the tumor development result reads like this: (1 mCi intratumoral on day 10 in 0.1-0.2 ml saline, FIG. 2) “significantly suppressed”; (200 μCi intratumoral on day 10 in 0.1-0.2 ml saline, FIG. 2) “significantly suppressed”; (500 μCi intratumoral on day 10 in 0.1-0.2 ml saline, FIG. 2) “significantly suppressed”. In addition, the tumor growth entry was “not significantly suppressed” (100 μCi intratumoral on day 10 in 0.1-0.2 ml saline, FIG. 2); “significantly suppressed tumor growth” (FIG. 3, in 0.2-0.3 ml saline, YCl3 0.3, 0.6, 1.5 mCi, ^111In—Cl 0.6, 1.2, 2.4, 4.8 mCi, ^67Ga 0.6 mCi); “significantly suppressed tumor growth” (FIG. 4, in 0.5 ml saline, YCl3 0.5, 1.0, 2.0 mCi, ^111In—Cl 1.0, 4.0 mCi, FDG 1.0, 2.0, 3.0 mCi, ^67Ga—Fe 1.77 mCi); “clearly suppressed” (at least 200 μCi intratumoral, FIG. 2). Further, the “dose equivalent for humans at which mortality occurred” value under setting [1] was 350 mCi/70 Kg. Besides, under setting [1], the “lowest dose with consistently observed local tumor suppression effects” value stood at 0.2 mCi. The “mortality after locoregional administration” value (rats, sporadically, at high dose equivalents for humans (e.g., 350 mCi/70 Kg)) was “some mortality was observed”.
